Results published in US7365053B2, “Selective N-acylation of A82846 glygopeptides analogs” (priority 2000, dated 2008).
Converted amounts (≈) assume the structure as drawn.

Columns and labels:
[1] = tested on: Enterococcus faecalis 2041; experiment: Broth micro-dilution MIC; assay type: cell-based; details: BHI medium
Experimental: (§1) The compounds of the present invention have in vitro activity against Gram-positive pathogenic bacteria. The antibacterial activity of the present compounds is illustrated in Tables III and IV. The minimal inhibitory concentrations (MICs) were determined using a standard broth micro-dilution assay. Table IV presents a comparison of the activity of illustrative compounds against representative vancomycin-resistant and vancomycin-sensitive enterococci (Enterococcus faecium and Enterococcus faecalis), mean geometric MIC (mcg/mL), as determined by the standard broth microdilution assay.
(§2) Assays for antimicrobial activity were performed using microbroth susceptibility testing methods as described by the NCCLS (National Committee for Clinical Laboratories Standards. 1990. Approved standard M7-A2. Methods for dilution antimicrobial susceptibility testing for bacteria that grow aerobically, 2 ed., Villanova Pa.). Brain-heart infusion medium (BHI) was used for testing of enterococci, and NCCLS recommendations for medium were followed for other bacteria.

[2] = tested on: Enterococcus faecalis 276; experiment: Broth micro-dilution MIC; assay type: cell-based; details: BHI medium
Experimental: as §1, §2

[3] = tested on: Enterococcus faecium 180-1; experiment: Broth micro-dilution MIC; assay type: cell-based; details: BHI medium
Experimental: as §1, §2

Enterococcus faecium 180 = experiment: Broth micro-dilution MIC; assay type: cell-based; details: BHI medium
Experimental: as §1, §2

[4] = tested on: Enterococcus gallinarum 245; experiment: Broth micro-dilution MIC; assay type: cell-based; details: BHI medium
Experimental: as §1, §2

Escherichia coli EC14 = experiment: Broth micro-dilution MIC; assay type: cell-based
Experimental: as §1, §2

[5] = tested on: Haemophilus influenzae RD; experiment: Broth micro-dilution MIC; assay type: cell-based
Experimental: as §1, §2

[6] = tested on: Staphylococcus aureus 446; experiment: Broth micro-dilution MIC; assay type: cell-based
Experimental: as §1, §2

[7] = tested on: Staphylococcus aureus 447; experiment: Broth micro-dilution MIC; assay type: cell-based
Experimental: as §1, §2

[8] = tested on: Staphylococcus aureus 489; experiment: Broth micro-dilution MIC; assay type: cell-based
Experimental: as §1, §2

[9] = tested on: Staphylococcus aureus 491; experiment: Broth micro-dilution MIC; assay type: cell-based
Experimental: as §1, §2

[10] = tested on: Staphylococcus aureus S13E; experiment: Broth micro-dilution MIC; assay type: cell-based
Experimental: as §1, §2

[11] = tested on: Staphylococcus aureus SA1199A; experiment: Broth micro-dilution MIC; assay type: cell-based
Experimental: as §1, §2

[12] = tested on: Staphylococcus aureus SA1199B; experiment: Broth micro-dilution MIC; assay type: cell-based
Experimental: as §1, §2

[13] = tested on: Staphylococcus aureus SA1199; experiment: Broth micro-dilution MIC; assay type: cell-based
Experimental: as §1, §2

[14] = tested on: Staphylococcus aureus X400; experiment: Broth micro-dilution MIC; assay type: cell-based
Experimental: as §1, §2

[15] = tested on: Staphylococcus aureus X778; experiment: Broth micro-dilution MIC; assay type: cell-based
Experimental: as §1, §2

[16] = tested on: Staphylococcus epidermidis 270; experiment: Broth micro-dilution MIC; assay type: cell-based
Experimental: as §1, §2

[17] = tested on: Staphylococcus haemolyticus 105; experiment: Broth micro-dilution MIC; assay type: cell-based
Experimental: as §1, §2

[18] = tested on: Staphylococcus haemolyticus 415; experiment: Broth micro-dilution MIC; assay type: cell-based
Experimental: as §1, §2

[19] = tested on: Streptococcus pneumoniae P1; experiment: Broth micro-dilution MIC; assay type: cell-based
Experimental: as §1, §2

[20] = tested on: Streptococcus pyogenes C203; experiment: Broth micro-dilution MIC; assay type: cell-based
Experimental: as §1, §2

[21] = tested on: vancomycin-resistant enterococci; experiment: In vitro activity against enterococci, broth microdilution; assay type: cell-based, Enterococcus faecium and Enterococcus faecalis; details: representative vancomycin-resistant enterococci (E. faecium and E. faecalis); BHI medium
Experimental: as §1, §2

[22] = tested on: vancomycin-sensitive enterococci; experiment: as above; assay type: cell-based, Enterococcus faecium and Enterococcus faecalis; details: representative vancomycin-sensitive enterococci (E. faecium and E. faecalis); BHI medium
Experimental: as §1, §2

Row | SMILES | MIC [1] | MIC [2] | MIC [3] | MIC (Enterococcus faecium 180) | MIC [4] | MIC (Escherichia coli EC14) | MIC [6] | MIC [7] | MIC [8] | MIC [9] | MIC [10] | MIC [11] | MIC [12] | MIC [13] | MIC [14] | MIC [15] | MIC [16] | MIC [17] | MIC [18] | MIC [19] | further results
1 | CNC(CC(C)C)C(=O)NC1C(=O)NC(CC(N)=O)C(=O)NC2C(=O)NC3C(=O)NC(C(=O)NC(C(=O)O)c4cc(O)cc(O)c4-c4cc3ccc4O)C(OC3CC(C)(N)C(O)C(C)O3)c3ccc(c(Cl)c3)Oc3cc2cc(c3OC2OC(CO)C(O)C(O)C2OC2CC(C)(NC(=O)c3ccc(-c4ccccc4)cc3)C(O)C(C)O2)Oc2ccc(cc2Cl)C1O (centres unmarked) [Example 1] | 0.125 µg/mL (≈ 0.0705 µM) | 0.5 µg/mL (≈ 0.282 µM) | ≦.06 μg/ml | 0.25 µg/mL (≈ 0.141 µM) | 8 µg/mL (≈ 4.51 µM) | >64 µg/mL | 2 µg/mL (≈ 1.13 µM) | 16 µg/mL (≈ 9.03 µM) | 0.5 µg/mL (≈ 0.282 µM) | 0.25 µg/mL (≈ 0.141 µM) | 2 µg/mL (≈ 1.13 µM) | 0.125 µg/mL (≈ 0.0705 µM) | 2 µg/mL (≈ 1.13 µM) | 2 µg/mL (≈ 1.13 µM) | 1 µg/mL (≈ 0.564 µM) | 1 µg/mL (≈ 0.564 µM) | 16 µg/mL (≈ 9.03 µM) | 1 µg/mL (≈ 0.564 µM) | 8 µg/mL (≈ 4.51 µM) | ≦.06 μg/ml | MIC [5]: >64 µg/mL; MIC [20]: ≦.06 μg/ml; Mean geometric MIC, Vancomycin Resistant Strains [21]: 11.3 µg/mL; Mean geometric MIC, Vancomycin Sensitive Strains [22]: 0.38 µg/mL
2 | CCCCCCCC(=O)N(C)C(CC(C)C)C(=O)NC1C(=O)NC(CC(N)=O)C(=O)NC2C(=O)NC3C(=O)NC(C(=O)NC(C(=O)O)c4cc(O)cc(O)c4-c4cc3ccc4O)C(OC3CC(C)(N)C(O)C(C)O3)c3ccc(c(Cl)c3)Oc3cc2cc(c3OC2OC(CO)C(O)C(O)C2OC2CC(C)(N)C(O)C(C)O2)Oc2ccc(cc2Cl)C1O (centres unmarked) [Example 10, 1′-N-octanoyl-A82846B] | 0.25 µg/mL (≈ 0.145 µM) | 0.25 µg/mL (≈ 0.145 µM) | ≦.06 μg/ml | 32 µg/mL (≈ 18.6 µM) | 2 µg/mL (≈ 1.16 µM) | >64 µg/mL | 1 µg/mL (≈ 0.582 µM) | 1 µg/mL (≈ 0.582 µM) | 0.25 µg/mL (≈ 0.145 µM) | 0.25 µg/mL (≈ 0.145 µM) | 0.5 µg/mL (≈ 0.291 µM) | 0.125 µg/mL (≈ 0.0727 µM) | 0.5 µg/mL (≈ 0.291 µM) | 0.5 µg/mL (≈ 0.291 µM) | 0.5 µg/mL (≈ 0.291 µM) | 0.5 µg/mL (≈ 0.291 µM) | 0.5 µg/mL (≈ 0.291 µM) | 1 µg/mL (≈ 0.582 µM) | 16 µg/mL (≈ 9.31 µM) | ≦.06 μg/ml | MIC [20]: ≦.06 μg/ml; Mean geometric MIC, Vancomycin Resistant Strains [21]: 90 µg/mL; Mean geometric MIC, Vancomycin Sensitive Strains [22]: 2.3 µg/mL
3 | CNC(CC(C)C)C(=O)NC1C(=O)NC(CC(N)=O)C(=O)NC2C(=O)NC3C(=O)NC(C(=O)NC(C(=O)O)c4cc(O)cc(O)c4-c4cc3ccc4O)C(OC3CC(C)(N)C(O)C(C)O3)c3ccc(c(Cl)c3)Oc3cc2cc(c3OC2OC(CO)C(O)C(O)C2OC2CC(C)(NC(=O)CCCCCCCc3ccccc3)C(O)C(C)O2)Oc2ccc(cc2Cl)C1O (centres unmarked) [Example 11] | ≦.06 μg/ml | 0.25 µg/mL (≈ 0.139 µM) | ≦.06 μg/ml | 0.5 µg/mL (≈ 0.279 µM) | 4 µg/mL (≈ 2.23 µM) | >64 µg/mL | 1 µg/mL (≈ 0.557 µM) | 2 µg/mL (≈ 1.11 µM) | 0.25 µg/mL (≈ 0.139 µM) | 0.125 µg/mL (≈ 0.0696 µM) | 0.25 µg/mL (≈ 0.139 µM) | ≦.06 μg/ml | 0.25 µg/mL (≈ 0.139 µM) | 1 µg/mL (≈ 0.557 µM) | 0.5 µg/mL (≈ 0.279 µM) | 0.125 µg/mL (≈ 0.0696 µM) | 1 µg/mL (≈ 0.557 µM) | ≦.06 μg/ml | 4 µg/mL (≈ 2.23 µM) | ≦.06 μg/ml | MIC [20]: ≦.06 μg/ml; Mean geometric MIC, Vancomycin Resistant Strains [21]: 9.5 µg/mL; Mean geometric MIC, Vancomycin Sensitive Strains [22]: 0.093 µg/mL
4 | CNC(CC(C)C)C(=O)NC1C(=O)NC(CC(N)=O)C(=O)NC2C(=O)NC3C(=O)NC(C(=O)NC(C(=O)O)c4cc(O)cc(O)c4-c4cc3ccc4O)C(OC3CC(C)(NC(=O)CCCCCCCc4ccccc4)C(O)C(C)O3)c3ccc(c(Cl)c3)Oc3cc2cc(c3OC2OC(CO)C(O)C(O)C2OC2CC(C)(N)C(O)C(C)O2)Oc2ccc(cc2Cl)C1O (centres unmarked) [Example 12] | ≦.06 μg/ml | ≦.06 μg/ml | ≦.06 μg/ml | 2 µg/mL (≈ 1.11 µM) | 8 µg/mL (≈ 4.46 µM) | >64 µg/mL | 0.125 µg/mL (≈ 0.0696 µM) | 2 µg/mL (≈ 1.11 µM) | ≦.06 μg/ml | ≦.06 μg/ml | ≦.06 μg/ml | ≦.06 μg/ml | 0.125 µg/mL (≈ 0.0696 µM) | 0.25 µg/mL (≈ 0.139 µM) | 0.125 µg/mL (≈ 0.0696 µM) | ≦.06 μg/ml | 2 µg/mL (≈ 1.11 µM) | ≦.06 μg/ml | 8 µg/mL (≈ 4.46 µM) | ≦.06 μg/ml | MIC [20]: ≦.06 μg/ml; Mean geometric MIC, Vancomycin Resistant Strains [21]: 45 µg/mL; Mean geometric MIC, Vancomycin Sensitive Strains [22]: 0.33 µg/mL
5 | CC(C)CC(C(=O)NC1C(=O)NC(CC(N)=O)C(=O)NC2C(=O)NC3C(=O)NC(C(=O)NC(C(=O)O)c4cc(O)cc(O)c4-c4cc3ccc4O)C(OC3CC(C)(N)C(O)C(C)O3)c3ccc(c(Cl)c3)Oc3cc2cc(c3OC2OC(CO)C(O)C(O)C2OC2CC(C)(N)C(O)C(C)O2)Oc2ccc(cc2Cl)C1O)N(C)C(=O)CCCCCCCc1ccccc1 (centres unmarked) [Example 13] | 0.25 µg/mL (≈ 0.139 µM) | 0.25 µg/mL (≈ 0.139 µM) | ≦.06 μg/ml | 8 µg/mL (≈ 4.46 µM) | 2 µg/mL (≈ 1.11 µM) | >64 µg/mL | 0.5 µg/mL (≈ 0.279 µM) | 0.5 µg/mL (≈ 0.279 µM) | 0.125 µg/mL (≈ 0.0696 µM) | 0.125 µg/mL (≈ 0.0696 µM) | 0.5 µg/mL (≈ 0.279 µM) | ≦.06 μg/ml | 0.25 µg/mL (≈ 0.139 µM) | 0.5 µg/mL (≈ 0.279 µM) | 0.25 µg/mL (≈ 0.139 µM) | 0.25 µg/mL (≈ 0.139 µM) | 0.25 µg/mL (≈ 0.139 µM) | ≦.06 μg/ml | 8 µg/mL (≈ 4.46 µM) | ≦.06 μg/ml | MIC [20]: ≦.06 μg/ml; Mean geometric MIC, Vancomycin Resistant Strains [21]: >51 µg/mL; Mean geometric MIC, Vancomycin Sensitive Strains [22]: 1.5 µg/mL
